The values that follow come from patent publication US10053453B2, “Compounds and their use as BACE inhibitors” (AstraZeneca AB, priority 2014, dated 2018).

For orientation: IC50 means the concentration needed to halve the response being measured.

Test [1] addresses T1, Human BACE2 (Homo sapiens, UniProt Q9Y5Z0).
T1 construct: the soluble part of the human β-Secretase2 (AA1-AA473) was cloned using BACE2(1-473)-(AVT)-Fc-pDEST12.2 mammalian expression vector; AVT linker (C); made in house
T1 sequence (Q9Y5Z0 21-473): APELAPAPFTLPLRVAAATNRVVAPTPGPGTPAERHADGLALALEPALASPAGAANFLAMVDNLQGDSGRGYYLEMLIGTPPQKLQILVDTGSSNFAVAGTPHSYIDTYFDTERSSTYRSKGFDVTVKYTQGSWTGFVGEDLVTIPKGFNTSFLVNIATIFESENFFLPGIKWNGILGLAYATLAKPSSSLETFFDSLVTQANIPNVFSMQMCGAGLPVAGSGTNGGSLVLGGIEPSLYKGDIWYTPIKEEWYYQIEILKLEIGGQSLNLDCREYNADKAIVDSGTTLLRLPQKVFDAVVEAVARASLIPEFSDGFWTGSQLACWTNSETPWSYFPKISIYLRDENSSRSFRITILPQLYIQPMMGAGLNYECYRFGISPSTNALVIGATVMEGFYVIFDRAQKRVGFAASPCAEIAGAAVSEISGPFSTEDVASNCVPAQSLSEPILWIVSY
As to the kind of experiment: TR-FRET assay. The test is classed as biochemical. The conditions noted are these: enzyme 2.7 μg/mL, substrate 100 nM, pH4.5. The protocol:
(§1) The β-secretase enzyme used in the TR-FRET was prepared as follows:
(§2) Human BACE1: the cDNA for the soluble part of the human β-Secretase1 (AA1-AA460) was cloned using the BACE1(1-460)-(AVT)-Fc-pGEN-IRES-neo mammalian expression vector. The gene was fused to the Fe domain of IgG1 (affinity tag) and stably cloned into HEK 293 cells. […]
A multidrop Combi was used for the liquid handling. Enzyme (7 μL) was added to the compound plate (containing 0.8 μL of compound in dimethylsulphoxide). The plate was incubated for 10 minutes. Substrate (8 μL) was then added, and the reaction proceeded for 17 minutes at r.t. The reaction was stopped with the addition of Stop solution (5.5 μL, NaOAC, pH 9). Fluorescence was measured on a Pherastar plate reader using HTRF module. […] 5 reference inhibitors with different affinities were used at all screen occasions in dose response.

In test [2] the test system is SH-SY5Y cells. The test can be described thus: sAPPβ release assay.
Description: Cells were thawed and seeded at a concentration of around 10000 cells/well in DMEM/F-12 with Glutamax, 10% FCS and 1% non-essential amino acids to a 384-well tissue culture treated plate, 30 μL cell susp/well. The cell plates were then incubated for 7-24 h at 37° C., 5% CO2.
The cell medium was removed, followed by addition of 50 μL compound diluted in DMEM/F-12 with Glutamax, 10% FCS, 1% non-essential amino acids to a final cone of 0.5% DMSO. The compounds were incubated with the cells for 16-17 h (overnight) at 37° C., 5% CO2.
Meso Scale Discovery (MSD) plates were used for the detection of sAPP release. MSD sAPPβ plates were blocked in 1% BSA in Tris wash buffer for 1 h on shake at r.t. and washed 1 time in Tris wash buffer. […] The MSD plates were incubated with shaking at r.t. for 2 h and the media discarded. 10 μL detection antibody was added (1 nM) per well followed by incubation with shaking at r.t. for 2 h and then discarded. 35 μL Read Buffer was added per well and the plates were read in a Meso Scale Discovery SECTOR6000 Imager.
Test [3] concerns the target T2, Human BACE1 (Homo sapiens, UniProt P56817).
T2 construct: the soluble part of the human β-Secretase1 (AA1-AA460) was cloned using the BACE1(1-460)-(AVT)-Fc-pGEN-IRES-neo mammalian expression vector; AVT linker (C); made in house
The test can be described thus: Diluted TR-FRET assay. The test is classed as biochemical. Conditions: 50 times less enzyme, 6.5 h reaction time at r.t.; read-out: IC50 BACE1 (dil. TR-FRET). On the procedure: as §1, §2
A multidrop Combi was used for the liquid handling. Enzyme (7 μL) was added to the compound plate (containing 0.8 μL of compound in dimethylsulphoxide). The plate was incubated for 10 minutes. […] The reaction was stopped with the addition of Stop solution (5.5 μL, NaOAC, pH 9). Fluorescence was measured on a Pherastar plate reader using HTRF module. […] 5 reference inhibitors with different affinities were used at all screen occasions in dose response.

Setting [4] is: Homo sapiens, SH-SY5Y, read-out: IC50 Cell (sAPPβ release, nM), SH-SY5Y cells, compounds incubated 16-17 h.
The mark [5] stands for this setting: Homo sapiens, SH-SY5Y, read-out: IC50 Cell (sAPPβ release, nM).

Like-named read-outs stand apart in the source and are kept apart here.

T2 sequence (P56817 22-460): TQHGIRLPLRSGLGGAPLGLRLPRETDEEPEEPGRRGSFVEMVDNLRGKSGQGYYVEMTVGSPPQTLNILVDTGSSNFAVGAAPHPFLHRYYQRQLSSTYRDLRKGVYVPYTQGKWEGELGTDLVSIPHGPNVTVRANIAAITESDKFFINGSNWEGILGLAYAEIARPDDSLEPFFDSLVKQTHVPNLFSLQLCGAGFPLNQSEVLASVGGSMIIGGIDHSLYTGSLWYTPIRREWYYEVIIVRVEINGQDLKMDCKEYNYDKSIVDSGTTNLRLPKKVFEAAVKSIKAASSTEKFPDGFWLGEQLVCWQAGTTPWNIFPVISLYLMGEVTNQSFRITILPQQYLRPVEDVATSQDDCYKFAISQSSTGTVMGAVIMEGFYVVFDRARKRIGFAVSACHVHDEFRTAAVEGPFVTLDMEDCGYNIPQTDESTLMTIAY

Turning to `[2H]C1([2H])OC(N)=N[C@]12c1cc(-c3cccnc3F)ccc1C[C@@]21CC[C@H](OC)[C@@H](C)C1` [Compound 5, (1S,1′R,3S,4S)-6′-(2-fluoropyridin-3-yl)-4-methoxy-3-methyl-3′H,5″H-dispiro[cyclohexane-1,2′-indene-1′,4″-oxazol]-5″,5″-d2-2″-amine], the values for the IC50 in test [1] and in test [2] (setting [4]) were 888 nM and 1.6 nM, respectively.

Regarding `[2H]C1([2H])OC(N)=N[C@]12c1cc(-c3cncc(F)c3)ccc1C[C@@]21CC[C@H](OC)[C@@H](C)C1` [Compound 9, (1S,1′R,3S,4S)-6′-(5-fluoropyridin-3-yl)-4-methoxy-3-methyl-3′H,5″H-dispiro[cyclohexane-1,2′-indene-1′,4″-oxazol]-5″,5″-d2-2″-amine], the results for the IC50 in test [1] and in test [2] (setting [4]) were 118 nM and 0.5 nM, respectively.

Regarding `COC1CCC2(CC1)Cc1ccc(-c3cc(Cl)cc(C#N)c3)cc1C21COC(N)=N1` (stereo not drawn) [Compound 18, 3-((1r,4r)-2″-amino-4-methoxy-3′H,5″H-dispiro[cyclohexane-1,2′-indene-1′,4″-oxazol]-6′-yl-5″,5″-d2)-5-chlorobenzonitrile], the concentration for half-maximal inhibition (IC50) in test [2] (read-out: IC50 Cell (sAPPβ release), SH-SY5Y cells, compounds incubated 16-17 h) is 3.3 nM.

For the compound `[2H]C1([2H])OC(N)=N[C@]12c1cc(-c3cncc(F)c3)ccc1C[C@]21CC[C@@H](OC)[C@H](C)C1` [Compound 25, (1R,1′R,3R,4R)-6′-(5-fluoropyridin-3-yl)-4-methoxy-3-methyl-3′H,5″H-dispiro[cyclohexane-1,2′-indene-1′,4″-oxazol]-5″,5″-d2-2″-amine], the IC50 in test [1] worked out at 135 nM; in test [2] (setting [4]), 1.8 nM.

In the case of `CO[C@@H]1CC[C@]2(Cc3ccc(-c4cncnc4)cc3[C@@]23COC(N)=N3)C[C@H]1C` [Compound 33, (1R,1′R,3R,4R)-4-methoxy-3-methyl-6′-(pyrimidin-5-yl)-3′H,5″H-dispiro[cyclohexane-1,2′-indene-1′,4″-oxazol]-2″-amine], the IC50 in test [2] (setting [5]) stood at 2.2 nM.

Consider `[2H]C1([2H])OC(N)=NC12c1cc(-c3cc(C#N)cc(OC)c3)ccc1C[C@]21CC[C@@H](OC)CC1` (stereo partly drawn) [Compound 36, 3-((1r,4r)-2″-amino-4-methoxy-3′H,5″H-dispiro[cyclohexane-1,2′-indene-1′,4″-oxazol]-6′-yl-5″,5″-d2)-5-methoxybenzonitrile], for which the half-inhibitory concentration (IC50) in test [2] (setting [5]) was determined as 4 nM.

Consider `CO[C@H]1CC[C@]2(CC1)Cc1ccc(-c3cncc(C)c3)cc1C21COC(N)=N1` (stereo partly drawn) [Compound 41, (1r,4r)-4-methoxy-6′-(5-methylpyridin-3-yl)-3′H,5″H-dispiro[cyclohexane-1,2′-indene-1′,4″-oxazol]-2″-amine], for which, in test [2] (setting [5]), the half-maximal inhibitory concentration (IC50) worked out at 5.1 nM.

Take `CO[C@H]1CC[C@]2(CC1)Cc1ccc(-c3cncnc3)cc1[C@@]21COC(N)=N1` [Compound 47, (1r,1′R,4R)-4-methoxy-6′-(pyrimidin-5-yl)-3′H,5″H-dispiro[cyclohexane-1,2′-indene-1′,4″-oxazol]-2″-amine]: the results for the concentration for half-maximal inhibition (IC50) in test [3] and in test [2] (setting [5]) were 152 nM and 9.1 nM, respectively.

Regarding `[2H]C([2H])([2H])O[C@H]1CC[C@@]2(Cc3ccc(-c4cncc(F)c4)cc3[C@]23N=C(N)OC3([2H])[2H])C[C@@H]1C` [Compound 66, (1S,1′R,3S,4S)-6′-(5-fluoropyridin-3-yl)-4-(methoxy-d3)-3-methyl-3′H,5″H-dispiro[cyclohexane-1,2′-indene-1′,4″-oxazol]-5″,5″-d2-2″-amine], the results for the concentration for half-maximal inhibition (IC50) in test [1] and in test [2] (setting [4]) were 134 nM and less than 0.16 nM, respectively.

Consider `[2H]C1([2H])OC(N)=N[C@]12c1cc(-c3cccnc3F)ccc1C[C@]21CC[C@@H](OC)[C@H](C)C1` [Compound 67, (1R,1′R,3R,4R)-6′-(2-fluoropyridin-3-yl)-4-methoxy-3-methyl-3′H,5″H-dispiro[cyclohexane-1,2′-indene-1′,4″-oxazol]-5″,5″-d2-2″-amine], for which the concentration for half-maximal inhibition (IC50) is 736 nM in test [1] and 1.7 nM in test [2] (setting [4]).

Consider `[2H]C1([2H])OC(N)=N[C@]12c1cc(-c3cncnc3)ccc1C[C@@]21CC[C@H](OC)[C@@H](CC)C1` [Compound 68, (1S,1′R,3S,4S)-3-ethyl-4-methoxy-6′-(pyrimidin-5-yl)-3′H,5″H-dispiro[cyclohexane-1,2′-indene-1′,4″-oxazol]-5″,5″-d2-2″-amine], for which the concentration for half-maximal inhibition (IC50) in test [2] (setting [5]) was 1.9 nM.

In the case of `[2H]C([2H])([2H])O[C@H]1CC[C@@]2(Cc3ccc(-c4cncnc4)cc3[C@]23N=C(N)OC3([2H])[2H])C[C@@H]1C` [Compound 71, (1S,1′R,3S,4S)-4-(methoxy-d3)-3-methyl-6′-(pyrimidin-5-yl)-3′H,5″H-dispiro[cyclohexane-1,2′-indene-1′,4″-oxazol]-5″,5″-d2-2″-amine], in test [2] (setting [5]), the 50% inhibitory concentration (IC50) worked out at 1.3 nM.

On to `[2H]C([2H])([2H])O[C@@H]1CC[C@]2(Cc3ccc(-c4cncnc4)cc3[C@]23N=C(N)OC3([2H])[2H])C[C@H]1C` [Compound 73, (1R,1′R,3R,4R)-4-(methoxy-d3)-3-methyl-6′-(pyrimidin-5-yl)-3′H,5″H-dispiro[cyclohexane-1,2′-indene-1′,4″-oxazol]-5″,5″-d2-2″-amine], for which, in test [2] (setting [5]), the IC50 amounted to 6.1 nM.

As to `[2H]C([2H])([2H])O[C@H]1CC[C@@]2(Cc3ccc(-c4cccnc4F)cc3[C@]23N=C(N)OC3([2H])[2H])C[C@@H]1C` [Compound 74, (1S,1′R,3S,4S)-6′-(2-fluoropyridin-3-yl)-4-(methoxy-d3)-3-methyl-3′H,5″H-dispiro[cyclohexane-1,2′-indene-1′,4″-oxazol]-5″,5″-d2-2″-amine], the half-inhibitory concentration (IC50) in test [2] (setting [4]) was 0.39 nM.

In the case of `[2H]C1([2H])OC(N)=N[C@]12c1cc(-c3cncnc3)ccc1C[C@]21CC[C@@H](OC)[C@H](CC)C1` [Compound 75, (1R,1′R,3R,4R)-3-ethyl-4-methoxy-6′-(pyrimidin-5-yl)-3′H,5″H-dispiro[cyclohexane-1,2′-indene-1′,4″-oxazol]-5″,5″-d2-2″-amine], in test [2] (setting [5]), the half-inhibitory concentration (IC50) is 0.9 nM.

Consider `[2H]C1([2H])OC(N)=N[C@]12c1cc(-c3cc(F)cnc3F)ccc1C[C@@]21CC[C@H](OC)[C@@H](C)C1` [Compound 76, (1S,1′R,3S,4S)-6′-(2,5-difluoropyridin-3-yl)-4-methoxy-3-methyl-3′H,5″H-dispiro[cyclohexane-1,2′-indene-1′,4″-oxazol]-5″,5″-d2-2″-amine], for which the IC50 in test [1] was 231 nM; in test [2] (setting [4]) it was 0.5 nM.

Turning to `CO[C@H]1CC[C@]2(CC1)Cc1ccc(-c3cncc(C)c3)cc1[C@@]21COC(N)=N1` [Compound 77, (1r,1′R,4R)-4-methoxy-6′-(5-methylpyridin-3-yl)-3′H,5″H-dispiro[cyclohexane-1,2′-indene-1′,4″-oxazol]-2″-amine], the half-inhibitory concentration (IC50) in test [2] (setting [5]) came to 7.5 nM.

In the case of `[2H]C([2H])([2H])O[C@@H]1CC[C@]2(Cc3ccc(-c4cccnc4F)cc3[C@]23N=C(N)OC3([2H])[2H])C[C@H]1C` [Compound 78, (1R,1′R,3R,4R)-6′-(2-fluoropyridin-3-yl)-4-(methoxy-d3)-3-methyl-3′H,5″H-dispiro[cyclohexane-1,2′-indene-1′,4″-oxazol]-5″,5″-d2-2″-amine], the IC50 in test [1] came to 895 nM; in test [2] (setting [4]), 1.5 nM.

Consider `[2H]C([2H])([2H])O[C@@H]1CC[C@]2(Cc3ccc(-c4cncc(F)c4)cc3[C@]23N=C(N)OC3([2H])[2H])C[C@H]1C` [Compound 79, (1R,1′R,3R,4R)-6′-(5-fluoropyridin-3-yl)-4-(methoxy-d3)-3-methyl-3′H,5″H-dispiro[cyclohexane-1,2′-indene-1′,4″-oxazol]-5″,5″-d2-2″-amine], for which the IC50 in test [1] turned out to be 207 nM; in test [2] (setting [4]) it was 2.1 nM.

Consider `[2H]C1([2H])OC(N)=N[C@]12c1cc(-c3cc(F)cnc3F)ccc1C[C@]21CC[C@@H](OC)[C@H](C)C1` [Compound 109, {(1R,1′R,3R,4R)-6′-(2,5-difluoropyridin-3-yl)-4-methoxy-3-methyl-3′H,5″H-dispiro[cyclohexane-1,2′-indene-1′,4″-oxazol]-5″,5″-d2-2″-amine}], for which the IC50 in test [1] was determined as 458 nM; in test [2] (setting [4]), 1.8 nM.
